In patent publication US20250250230A1, “HETEROCYCLIC COMPOUND” (TAKEDA PHARMACEUTICAL COMPANY LIMITED, priority 2022, published 2025):

target: T1, human orexin type 2 receptor (Homo sapiens, UniProt O43614); test: Measurement of orexin type 2 receptor agonist activity (calcium fluorescence, Fluo-4 AM, FDSS); format: cell-based; conditions: test compound 3 μM; CHO cells expressing human OX2 receptor; DMSO = 0%, orexin A (human) = 100%
T1 construct: expressed in transfected cells
T1 sequence (O43614 1-444): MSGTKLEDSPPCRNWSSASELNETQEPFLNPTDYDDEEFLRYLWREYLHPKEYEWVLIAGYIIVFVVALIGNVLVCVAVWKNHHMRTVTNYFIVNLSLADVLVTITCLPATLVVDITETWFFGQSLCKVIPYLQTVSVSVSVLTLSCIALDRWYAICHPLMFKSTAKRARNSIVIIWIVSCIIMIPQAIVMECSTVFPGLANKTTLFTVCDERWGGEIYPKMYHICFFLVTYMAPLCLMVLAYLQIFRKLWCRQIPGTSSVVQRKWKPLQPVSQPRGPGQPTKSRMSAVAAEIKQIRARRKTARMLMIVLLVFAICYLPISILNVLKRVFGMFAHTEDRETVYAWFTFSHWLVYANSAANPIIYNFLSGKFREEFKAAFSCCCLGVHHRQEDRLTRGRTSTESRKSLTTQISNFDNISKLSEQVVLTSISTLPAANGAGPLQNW
Procedure, shortened: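 CHO-K1 cells stably expressing human OX2R were loaded with Fluo-4 AM (30 min 37 °C, 30 min RT) in HEPES-buffered HBSS with 0.1% BSA and probenecid. Calcium fluorescence was followed on FDSS for 2 min after compound addition; activity normalised to DMSO (0%) and 10 nM orexin A (100%).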

SMILES	OX2R agonist activity (3 μM, %) [%]
CS(=O)(=O)NC1CCCN(C(=O)C2CC2c2ccccc2-c2c(F)cccc2F)CC1 (racemic) [Example 38, a mixture of rac-N-{(4R)-1-[(1R,2R)-2-(2′,6′-difluoro[1,1′-biphenyl]-2-yl)cyclopropane-1-carbonyl]azepan-4-yl}methanesulfonamide and rac-N-{(4S)-1-[(1R,2R)-2-(2′,6′-difluoro[1,1′-biphenyl]-2-yl)cyclopropane-1-carbonyl]azepan-4-yl}methanesulfonamide]	106
CS(=O)(=O)NC1CCCN(C(=O)C2CC2c2ccccc2-c2c(F)cccc2F)C1 (racemic) [Example 39, a mixture of rac-N-{(3R)-1-[(1R,2R)-2-(2′,6′-difluoro[1,1′-biphenyl]-2-yl)cyclopropane-1-carbonyl]piperidin-3-yl}methanesulfonamide and rac-N-{(3S)-1-[(1R,2R)-2-(2′,6′-difluoro[1,1′-biphenyl]-2-yl)cyclopropane-1-carbonyl]piperidin-3-yl}methanesulfonamide]	102
CS(=O)(=O)NCC1CCN(C(=O)C2CC2c2ccccc2-c2c(F)cccc2F)C1 (racemic) [Example 40, a mixture of rac-N-({(3R)-1-[(1R,2R)-2-(2′,6′-difluoro[1,1′-biphenyl]-2-yl)cyclopropane-1-carbonyl]pyrrolidin-3-yl}methyl)methanesulfonamide and rac-N-({(3S)-1-[(1R,2R)-2-(2′,6′-difluoro[1,1′-biphenyl]-2-yl)cyclopropane-1-carbonyl]pyrrolidin-3-yl}methyl)methanesulfonamide]	77
CS(=O)(=O)NC1CCCCN(C(=O)C2CC2c2ccccc2-c2c(F)cccc2F)C1 (racemic) [Example 41, a mixture of rac-N-{(3R)-1-[(1R,2R)-2-(2′,6′-difluoro[1,1′-biphenyl]-2-yl)cyclopropane-1-carbonyl]azepan-3-yl}methanesulfonamide and rac-N-{(3S)-1-[(1R,2R)-2-(2′,6′-difluoro[1,1′-biphenyl]-2-yl)cyclopropane-1-carbonyl]azepan-3-yl}methanesulfonamide]	97
CS(=O)(=O)NC1CCCN(C(=O)C2CC2c2ccccc2-c2ccccc2Cl)CC1 (racemic) [Example 43, a mixture of rac-N-{(4R)-1-[(1R,2R)-2-(2′-chloro[1,1′-biphenyl]-2-yl)cyclopropane-1-carbonyl]azepan-4-yl}methanesulfonamide and rac-N-{(4S)-1-[(1R,2R)-2-(2′-chloro[1,1′-biphenyl]-2-yl)cyclopropane-1-carbonyl]azepan-4-yl}methanesulfonamide]	92
CS(=O)(=O)NC1CCCN(C(=O)C2CC2c2ccccc2-c2cc(F)ccc2F)CC1 (racemic) [Example 51, a mixture of rac-N-{(4R)-1-[(1R,2R)-2-(2′,5′-difluoro[1,1′-biphenyl]-2-yl)cyclopropane-1-carbonyl]azepan-4-yl}methanesulfonamide and rac-N-{(4S)-1-[(1R,2R)-2-(2′,5′-difluoro[1,1′-biphenyl]-2-yl)cyclopropane-1-carbonyl]azepan-4-yl}methanesulfonamide]	75
Cc1ccccc1-c1ccccc1C1CC1C(=O)N1CCCC(NS(C)(=O)=O)CC1 (racemic) [Example 52, a mixture of rac-N-{(4R)-1-[(1R,2R)-2-(2′-methyl[1,1′-biphenyl]-2-yl)cyclopropane-1-carbonyl]azepan-4-yl}methanesulfonamide and rac-N-{(4S)-1-[(1R,2R)-2-(2′-methyl[1,1′-biphenyl]-2-yl)cyclopropane-1-carbonyl]azepan-4-yl}methanesulfonamide]	65
CS(=O)(=O)NC1CCCN(C(=O)C2CC2c2ccccc2-c2cccc(F)c2F)CC1 (racemic) [Example 54, a mixture of rac-N-{(4R)-1-[(1R,2R)-2-(2′,3′-difluoro[1,1′-biphenyl]-2-yl)cyclopropane-1-carbonyl]azepan-4-yl}methanesulfonamide and rac-N-{(4S)-1-[(1R,2R)-2-(2′,3′-difluoro[1,1′-biphenyl]-2-yl)cyclopropane-1-carbonyl]azepan-4-yl}methanesulfonamide]	79
CS(=O)(=O)NC1CCCN(C(=O)C2CC2c2ccccc2-c2ccc(F)cc2F)CC1 (racemic) [Example 56, a mixture of rac-N-{(4R)-1-[(1R,2R)-2-(2′,4′-difluoro[1,1′-biphenyl]-2-yl)cyclopropane-1-carbonyl]azepan-4-yl}methanesulfonamide and rac-N-{(4S)-1-[(1R,2R)-2-(2′,4′-difluoro[1,1′-biphenyl]-2-yl)cyclopropane-1-carbonyl]azepan-4-yl}methanesulfonamide]	85
CS(=O)(=O)NC1CCCN(C(=O)C2CC2c2ccccc2-c2ccccc2F)CC1 (racemic) [Example 59, a mixture of rac-N-{(4R)-1-[(1R,2R)-2-(2′-fluoro[1,1′-biphenyl]-2-yl)cyclopropane-1-carbonyl]azepan-4-yl}methanesulfonamide and rac-N-{(4S)-1-[(1R,2R)-2-(2′-fluoro[1,1′-biphenyl]-2-yl)cyclopropane-1-carbonyl]azepan-4-yl}methanesulfonamide]	80
CS(=O)(=O)NC1CCCN(C(=O)C2CC2c2ccccc2-c2cc(F)ccc2F)C1 (racemic) [Example 65, a mixture of rac-N-{(3R)-1-[(1R,2R)-2-(2′,5′-difluoro[1,1′-biphenyl]-2-yl)cyclopropane-1-carbonyl]piperidin-3-yl}methanesulfonamide and rac-N-{(3S)-1-[(1R,2R)-2-(2′,5′-difluoro[1,1′-biphenyl]-2-yl)cyclopropane-1-carbonyl]piperidin-3-yl}methanesulfonamide]	83
Cc1ccccc1-c1ccccc1C1CC1C(=O)N1CCCC(NS(C)(=O)=O)C1 (racemic) [Example 66, a mixture of rac-N-{(3R)-1-[(1R,2R)-2-(2′-methyl[1,1′-biphenyl]-2-yl)cyclopropane-1-carbonyl]piperidin-3-yl}methanesulfonamide and rac-N-{(3S)-1-[(1R,2R)-2-(2′-methyl[1,1′-biphenyl]-2-yl)cyclopropane-1-carbonyl]piperidin-3-yl}methanesulfonamide]	52
CS(=O)(=O)NC1CCCN(C(=O)C2CC2c2ccccc2-c2cccc(F)c2F)C1 (racemic) [Example 67, a mixture of rac-N-{(3R)-1-[(1R,2R)-2-(2′,3′-difluoro[1,1′-biphenyl]-2-yl)cyclopropane-1-carbonyl]piperidin-3-yl}methanesulfonamide and rac-N-{(3S)-1-[(1R,2R)-2-(2′,3′-difluoro[1,1′-biphenyl]-2-yl)cyclopropane-1-carbonyl]piperidin-3-yl}methanesulfonamide]	89
CS(=O)(=O)NC1CCCN(C(=O)C2CC2c2ccccc2-c2ccc(F)cc2F)C1 (racemic) [Example 68, a mixture of rac-N-{(3R)-1-[(1R,2R)-2-(2′,4′-difluoro[1,1′-biphenyl]-2-yl)cyclopropane-1-carbonyl]piperidin-3-yl}methanesulfonamide and rac-N-{(3S)-1-[(1R,2R)-2-(2′,4′-difluoro[1,1′-biphenyl]-2-yl)cyclopropane-1-carbonyl]piperidin-3-yl}methanesulfonamide]	85
CS(=O)(=O)NC1CCCN(C(=O)C2CC2c2ccccc2-c2ccccc2F)C1 (racemic) [Example 72, a mixture of rac-N-{(3R)-1-[(1R,2R)-2-(2′-fluoro[1,1′-biphenyl]-2-yl)cyclopropane-1-carbonyl]piperidin-3-yl}methanesulfonamide and rac-N-{(3S)-1-[(1R,2R)-2-(2′-fluoro[1,1′-biphenyl]-2-yl)cyclopropane-1-carbonyl]piperidin-3-yl}methanesulfonamide]	81
CS(=O)(=O)NC1CCCN(C(=O)C2CC2c2ccccc2-c2ccccc2Cl)C1 (racemic) [Example 74, a mixture of rac-N-{(3R)-1-[(1R,2R)-2-(2′-chloro[1,1′-biphenyl]-2-yl)cyclopropane-1-carbonyl]piperidin-3-yl}methanesulfonamide and rac-N-{(3S)-1-[(1R,2R)-2-(2′-chloro[1,1′-biphenyl]-2-yl)cyclopropane-1-carbonyl]piperidin-3-yl}methanesulfonamide]	84
CS(=O)(=O)NC1CCN(C(=O)C2CC2c2ccccc2-c2cc(F)ccc2F)C1 (racemic) [Example 80, a mixture of rac-N-{(3R)-1-[(1R,2R)-2-(2′,5′-difluoro[1,1′-biphenyl]-2-yl)cyclopropane-1-carbonyl]pyrrolidin-3-yl}methanesulfonamide and rac-N-{(3S)-1-[(1R,2R)-2-(2′,5′-difluoro[1,1′-biphenyl]-2-yl)cyclopropane-1-carbonyl]pyrrolidin-3-yl}methanesulfonamide]	66
